Measurements from publication PMC11219860, “A chemogenetic approach for dopamine imaging with tunable sensitivity” (Nature Communications, 2024).
Like-named read-outs stand apart in the source and are kept apart here.

How the values were obtained:
[1] = molecular target: T1, mouse DA transporter (DAT) (Mus musculus, UniProt Q61327); assay: Fast-scan cyclic voltammetry of DA release in striatal slices; settings: bath application: DETQ 200 nM; cocaine 5 µM
T1 construct: Lack of DETQ effect on the endogenous DA transporter; from tissue; host or cells: mouse striatal brain slices
T1 sequence (Q61327 whole entry): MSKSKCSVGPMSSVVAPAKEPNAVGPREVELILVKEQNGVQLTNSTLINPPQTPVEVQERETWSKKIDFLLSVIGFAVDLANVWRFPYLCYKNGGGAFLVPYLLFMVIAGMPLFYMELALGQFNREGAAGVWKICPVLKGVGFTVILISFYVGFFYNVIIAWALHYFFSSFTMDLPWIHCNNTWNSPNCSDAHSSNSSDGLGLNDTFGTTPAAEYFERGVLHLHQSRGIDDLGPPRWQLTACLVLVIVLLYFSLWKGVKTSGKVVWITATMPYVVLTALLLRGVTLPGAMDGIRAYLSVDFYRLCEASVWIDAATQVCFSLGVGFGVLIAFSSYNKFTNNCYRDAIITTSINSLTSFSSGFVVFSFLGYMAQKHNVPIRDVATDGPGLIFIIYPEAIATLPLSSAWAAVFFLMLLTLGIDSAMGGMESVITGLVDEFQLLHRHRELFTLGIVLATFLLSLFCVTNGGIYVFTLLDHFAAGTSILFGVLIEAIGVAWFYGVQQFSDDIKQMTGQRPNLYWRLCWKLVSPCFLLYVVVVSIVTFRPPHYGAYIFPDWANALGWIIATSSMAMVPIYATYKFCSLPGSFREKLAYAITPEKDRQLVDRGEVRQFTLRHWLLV
Procedure: Striatal DA release was measured using fast-scan cyclic voltammetry (FSCV) with a carbon fiber electrode (CFE; diameter 7 µm, length 50–100 µm) positioned approximately 100 µm below the surface of the slice. The CFE was scanned across a triangular waveform (−0.4 to +1.3 V, 400 V/s) at 10 Hz, and DA release was evoked by single-pulse electrical stimulation (30 µA, 0.5 ms) with an inter-stimulus interval of 180 s. DA release was evoked in the presence of DHBE (1 µM) to block nicotinic acetylcholine receptors. Peak background-subtracted DA oxidation current was measured at +0.6 V, and drugs were washed on after establishing a stable baseline.

[2] = 10 and 30 mg/kg per os, ref Svensson et al 2017, cited from earlier work
dLight1.3b [3] = assay: In vivo photometry of optogenetically-evoked DA release in PFC; design: species or system mouse; settings: DETQ 10 mg/kg i.p.
Procedure: Fiber photometry combined with optogenetics was conducted using a RZ10X LUX-I/O Processor with integrated LEDs (Tucker-Davis Technologies) combined with a filter/mirror minicube set (FMC6_IE(400-410)_E1(467-497)_F1(507-554)_E2(566-586)_F2(600-680)_S) (Doric Lenses). […] Low-autofluorescence patch cords (400 µm/0.57 NA, Doric) were attached to the optic fibers (400 µm/0.66 NA, Doric) on the mouse’s head to collect fluorescence emissions. Signals were filtered through 500–540 nm GFP emission filters coupled to a photodetector on the RZ10X. […] Data were sampled at 1017.3 Hz. […] For optogenetic stimulation, a 635 nm LED was passed through the 580–680 nm minicube F2 port and reached the mouse through the same unique optic fiber; the LED was driven at 1 to 3 mW. To determine the ‘temporal window for stable imaging’ in the PFC using dLight1.3b recordings, DAT^IREScre mice expressing ChrimsonR in VTA DA axons and dLight1.3b in the PFC were injected i.p. with vehicle at 0 min, followed by DETQ (10 mg/kg) 25 min later. After each injection, PFC DA axons were optically (opto) activated across 5 trials (2 s, 20 Hz, 20-ms pulses) for the vehicle (20 min) and […] for DETQ (1h05 min) every 5 min. DA release was measured with fiber photometry. In another session, the same mice were injected with Veh, then DETQ (10 mg/kg) 20 min later, then cocaine (20 mg/kg) 25 min later, and the same optogenetic protocol was applied (2 s, 20 Hz, 20-ms pulses every 5 min). For optogenetic validation of AlloLite-ctr in the NAc, DAT^IREScre mice expressing ChrimsonR in VTA DA axons were injected i.p. with vehicle (Day 1) or DETQ (10 mg/kg) (Day 8) at 0 min, followed by cocaine (20 mg/kg) 20 min later. After each injection, NAc DA axons were optically (opto) activated across 3 trials (2 s, 20 Hz, 20-ms pulses) every 5 min and DA released measured with fiber photometry. […] After each injection, NAc DA axons were optically (opto) inhibited (10 s, continuous trials) every 3 min (8 trials/condition) and DA released measured with fiber photometry. […] DA release was measured with fiber photometry.
For long-term recordings during optogenetic stimulation or chemogenetic inhibition linear fit was calculated across the entire recording or across the vehicle epoch; for event-related experiments fit was performed on fluorescent data obtained in the −60 to +60 s around opto events or −5 to −1 s around behavioral events. […] DA event-related responses were quantified by computing the value at the transient’s peak value and the AUC in the 0 to 10 s or 0 to 60 s period post-event onset. […] The maximal peak value of Veh-normalized ΔF/F0 after opto-onset was plotted over time and the plateau of maximal response was determined by averaging peak opto responses 5, 10, 15 and 20 min post-DETQ. […]

dLight1.3b [4] = molecular target: dLight1.3b (Homo sapiens, UniProt P21728); assay: DA titrations on dLight1.3b-expressing HEK293 cells (confocal fluorescence imaging); type: cell-based
Procedure: Cells were transfected at 50–60% confluency in glass-bottomed dishes (either individually or in 24-well plates) using the Effectene transfection kit (Qiagen) according to manufacturer instructions, and imaged 24–48 h after transfection. The Flp-In™ T-REx™ 293 cells (Thermo Fisher) with a stably integrated dLight1.3b cassette[48] were cultured as follows: the cells were cultured using HEK293T cell medium with the addition of Blasticidin (15 µg/ml) and Hygromycin B (200 µg/ml). To induce the expression of dLight1.3b, doxycycline (500 ng/ml) was added to the culture medium for 24–48 hours. Before imaging, cells were rinsed with 1 mL of Hank’s Balanced Salt Solution (HBSS, Life Technologies) supplemented with Ca^2+ (2 mM) and Mg^2+ (1 mM), and imaged at room temperature with a final HBSS volume of either 100 µL for each individual 1.5 cm glass bottom dish, or 500 µL for 24-well plates. Time-lapse imaging was performed on an inverted Zeiss LSM 800 confocal microscope using a 488 nm laser and a 40X oil-based objective. During imaging, ligands were added in bolus on the cells using a micropipette to reach the final specified concentrations of ligand over the cells. For quantification, except otherwise noted, regions of interest (ROI) were selected manually using the threshold function of Fiji to isolate the cell membrane. Sensor response (∆F/F) was calculated as the following: (F(t)-F_base)/F_base with F(t) being the ROI fluorescence value at each time point (t), and F_base being the mean fluorescence of the 10-time points immediately prior to ligand addition.

Q: Which “decay constant (tau) of DA signals” value [1] does the source give for C[C@H]1c2cccc(C(C)(C)O)c2C[C@H](CO)N1C(=O)Cc1c(Cl)cccc1Cl [DETQ, 2-(2,6-dichlorophenyl)-1-((1S,3R)-3-(hydroxymethyl)-5-(2-hydroxypropan-2-yl)-1-methyl-3,4-dihydroisoquinolin-2(1H)-yl)ethan-1-one] here?
A: no effect

Q: And the “peak DA release” value [1]?
A: no effect

Q: And the behavioral activity ([2]; hD1 mice)?
A: pronounced behavioral activation

Q: What about the behavioral activity ([2]; wild type mice) of the same compound?
A: no behavioral activity

Q: What about the “duration of stable increase in DA sensitivity” value (dLight1.3b [3]) of the same compound?
A: 31 min

Q: And the “opto-evoked DA signal amplitude” value (dLight1.3b [3])?
A: clear and significant increase

Q: And the “opto-evoked DA signal decay time” value (dLight1.3b [3])?
A: clear and significant increase

Q: And the “maximal leftward shift in the EC50 of DA” value (dLight1.3b [4])?
A: ~ 8 fold

Q: What about the “sensor response to DETQ in the absence of DA” value (dLight1.3b [4]) of the same compound?
A: could not trigger a response

Q: What about the “effect on the DA sensitivity of dLight1.3b” value (dLight1.3b [4]; D1-PAM 5 μM) of the same compound?
A: strong positive allosteric effect

Q: What about the “sensor fluorescence in the presence of sub-maximal DA” value (dLight1.3b [4]; DA 100 nM, DETQ 100 nM) of the same compound?
A: strong and significant increase

Q: What about the “maximal fluorescent response to a saturating concentration of DA” value (dLight1.3b [4]; DA 100 µM, wide range of DETQ concentrations) of the same compound?
A: not affected

Q: And the Kb (dLight1.3b [4]; DA titrations with 1 nM to 450 nM DETQ, allosteric EC50 shift, read-out: allosteric affinity constant (Kb))?
A: 54 nM

Q: And the “effect on sensor responses to noradrenaline (NE)” value (dLight1.3b [4]; DETQ 50 nM)?
A: potentiation

Q: What about the α factor (dLight1.3b [4]; allosteric EC50 shift fit) of the same compound?
A: 8.6
